# Data as given in ChEMBL document CHEMBL3991601, “The target landscape of clinical kinase drugs” (Science, 2017).
# Activity calls are given as the source filed them. Rule as the data show it, for most assays here: actives have a measured Kd and inactives only a lower limit.
# What was measured:
# [1] = molecular target: Cyclin-dependent kinase 5 (Homo sapiens, UniProt Q00535)
# Ephrin type-B receptor 3 = molecular target: T1, Ephrin type-B receptor 3 (Homo sapiens, UniProt P54753)
# T1 sequence (P54753 whole entry): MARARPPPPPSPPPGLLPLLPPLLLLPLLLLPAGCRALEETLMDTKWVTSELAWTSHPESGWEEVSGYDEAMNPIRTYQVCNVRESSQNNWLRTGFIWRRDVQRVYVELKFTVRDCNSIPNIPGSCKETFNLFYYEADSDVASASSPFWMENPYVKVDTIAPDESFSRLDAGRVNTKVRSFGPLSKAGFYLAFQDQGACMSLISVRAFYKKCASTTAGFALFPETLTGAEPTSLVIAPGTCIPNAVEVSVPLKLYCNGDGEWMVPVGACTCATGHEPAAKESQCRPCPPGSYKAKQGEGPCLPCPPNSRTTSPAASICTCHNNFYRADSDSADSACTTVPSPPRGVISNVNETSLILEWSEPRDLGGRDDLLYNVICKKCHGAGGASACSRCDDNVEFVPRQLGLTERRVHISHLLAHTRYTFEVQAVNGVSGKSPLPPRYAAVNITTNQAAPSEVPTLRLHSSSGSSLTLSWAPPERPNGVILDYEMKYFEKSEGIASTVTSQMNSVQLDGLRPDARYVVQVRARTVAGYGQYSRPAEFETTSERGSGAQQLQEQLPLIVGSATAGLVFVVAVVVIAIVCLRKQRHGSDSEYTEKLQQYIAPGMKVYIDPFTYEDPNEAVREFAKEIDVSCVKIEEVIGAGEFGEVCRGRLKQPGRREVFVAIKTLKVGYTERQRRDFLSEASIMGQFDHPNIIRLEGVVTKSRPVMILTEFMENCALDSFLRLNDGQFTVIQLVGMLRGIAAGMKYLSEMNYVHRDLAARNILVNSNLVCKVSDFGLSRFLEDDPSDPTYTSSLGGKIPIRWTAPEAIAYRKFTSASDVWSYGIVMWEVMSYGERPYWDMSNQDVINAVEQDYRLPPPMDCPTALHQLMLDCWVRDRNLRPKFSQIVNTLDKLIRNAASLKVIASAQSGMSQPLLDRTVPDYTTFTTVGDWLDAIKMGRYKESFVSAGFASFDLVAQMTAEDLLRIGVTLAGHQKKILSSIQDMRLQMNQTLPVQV
# [2] = molecular target: RAC-alpha serine/threonine-protein kinase (Homo sapiens, UniProt P31749)
# Sequence of RAC-alpha serine/threonine-protein kinase (P31749 whole entry): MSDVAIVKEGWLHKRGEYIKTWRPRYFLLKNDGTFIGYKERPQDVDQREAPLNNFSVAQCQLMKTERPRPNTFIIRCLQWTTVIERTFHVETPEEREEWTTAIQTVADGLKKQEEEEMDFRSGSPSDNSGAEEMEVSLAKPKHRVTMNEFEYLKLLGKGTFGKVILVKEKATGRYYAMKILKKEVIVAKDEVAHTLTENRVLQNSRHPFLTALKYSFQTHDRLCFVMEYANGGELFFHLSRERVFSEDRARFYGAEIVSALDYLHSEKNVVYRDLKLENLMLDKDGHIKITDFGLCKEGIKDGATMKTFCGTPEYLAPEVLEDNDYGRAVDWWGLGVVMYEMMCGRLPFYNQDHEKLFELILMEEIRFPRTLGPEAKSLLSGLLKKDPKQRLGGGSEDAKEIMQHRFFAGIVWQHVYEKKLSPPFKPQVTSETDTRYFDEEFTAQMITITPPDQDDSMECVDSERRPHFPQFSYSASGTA
# [3] = molecular target: T2, Serine/threonine-protein kinase D3 (Homo sapiens, UniProt O94806)
# T2 sequence (O94806 whole entry): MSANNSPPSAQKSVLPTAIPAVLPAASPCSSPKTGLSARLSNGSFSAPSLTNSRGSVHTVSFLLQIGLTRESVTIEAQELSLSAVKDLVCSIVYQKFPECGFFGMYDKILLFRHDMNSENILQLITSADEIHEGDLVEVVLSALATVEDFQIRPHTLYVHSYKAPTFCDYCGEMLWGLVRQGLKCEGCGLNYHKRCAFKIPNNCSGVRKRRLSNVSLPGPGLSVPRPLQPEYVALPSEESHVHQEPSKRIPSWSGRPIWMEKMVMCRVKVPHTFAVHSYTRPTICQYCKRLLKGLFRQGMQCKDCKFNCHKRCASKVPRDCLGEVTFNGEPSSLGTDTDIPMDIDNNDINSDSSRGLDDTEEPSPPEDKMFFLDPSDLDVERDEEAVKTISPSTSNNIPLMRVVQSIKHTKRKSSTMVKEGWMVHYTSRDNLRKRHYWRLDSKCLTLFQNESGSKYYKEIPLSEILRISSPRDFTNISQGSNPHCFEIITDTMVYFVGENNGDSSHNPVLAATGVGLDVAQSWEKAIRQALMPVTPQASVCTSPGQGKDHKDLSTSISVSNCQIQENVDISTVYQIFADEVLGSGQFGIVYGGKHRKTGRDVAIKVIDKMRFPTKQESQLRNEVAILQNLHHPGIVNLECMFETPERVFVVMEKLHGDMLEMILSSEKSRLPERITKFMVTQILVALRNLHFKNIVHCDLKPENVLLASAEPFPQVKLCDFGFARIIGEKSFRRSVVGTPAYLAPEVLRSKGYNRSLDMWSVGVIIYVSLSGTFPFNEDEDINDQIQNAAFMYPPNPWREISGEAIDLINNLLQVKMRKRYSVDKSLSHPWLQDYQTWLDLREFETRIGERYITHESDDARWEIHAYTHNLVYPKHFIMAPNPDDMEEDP
# [4] = molecular target: T3, Serine/threonine-protein kinase Nek9 (Homo sapiens, UniProt Q8TD19)
# T3 sequence (Q8TD19 whole entry): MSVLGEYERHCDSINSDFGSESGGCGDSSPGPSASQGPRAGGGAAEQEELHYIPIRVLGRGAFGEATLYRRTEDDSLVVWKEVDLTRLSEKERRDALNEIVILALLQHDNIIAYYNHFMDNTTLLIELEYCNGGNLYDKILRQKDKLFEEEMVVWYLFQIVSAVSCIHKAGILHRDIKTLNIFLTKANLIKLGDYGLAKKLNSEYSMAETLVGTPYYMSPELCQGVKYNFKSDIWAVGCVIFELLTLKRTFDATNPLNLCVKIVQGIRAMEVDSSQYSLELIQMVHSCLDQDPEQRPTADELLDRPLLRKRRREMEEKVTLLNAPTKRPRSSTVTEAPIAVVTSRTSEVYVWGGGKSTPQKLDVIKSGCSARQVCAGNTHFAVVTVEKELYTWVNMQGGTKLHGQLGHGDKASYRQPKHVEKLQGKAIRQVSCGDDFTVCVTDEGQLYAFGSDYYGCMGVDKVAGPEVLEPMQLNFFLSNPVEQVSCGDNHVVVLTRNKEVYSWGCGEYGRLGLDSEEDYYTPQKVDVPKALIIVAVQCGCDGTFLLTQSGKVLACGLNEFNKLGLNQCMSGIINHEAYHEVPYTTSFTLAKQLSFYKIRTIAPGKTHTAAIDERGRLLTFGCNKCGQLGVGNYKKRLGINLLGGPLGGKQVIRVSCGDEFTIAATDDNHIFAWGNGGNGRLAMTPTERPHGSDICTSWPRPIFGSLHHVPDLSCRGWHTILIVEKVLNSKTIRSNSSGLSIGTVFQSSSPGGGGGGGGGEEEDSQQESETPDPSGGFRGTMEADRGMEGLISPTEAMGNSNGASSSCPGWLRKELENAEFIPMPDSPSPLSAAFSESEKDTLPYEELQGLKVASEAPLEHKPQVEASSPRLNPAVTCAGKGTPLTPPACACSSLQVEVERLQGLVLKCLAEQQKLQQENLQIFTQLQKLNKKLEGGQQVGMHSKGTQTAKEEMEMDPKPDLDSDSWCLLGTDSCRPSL
# [5] = molecular target: Mitogen-activated protein kinase kinase kinase 4 (Homo sapiens, UniProt Q9Y6R4)
# Sequence of Mitogen-activated protein kinase kinase kinase 4 (Q9Y6R4 whole entry): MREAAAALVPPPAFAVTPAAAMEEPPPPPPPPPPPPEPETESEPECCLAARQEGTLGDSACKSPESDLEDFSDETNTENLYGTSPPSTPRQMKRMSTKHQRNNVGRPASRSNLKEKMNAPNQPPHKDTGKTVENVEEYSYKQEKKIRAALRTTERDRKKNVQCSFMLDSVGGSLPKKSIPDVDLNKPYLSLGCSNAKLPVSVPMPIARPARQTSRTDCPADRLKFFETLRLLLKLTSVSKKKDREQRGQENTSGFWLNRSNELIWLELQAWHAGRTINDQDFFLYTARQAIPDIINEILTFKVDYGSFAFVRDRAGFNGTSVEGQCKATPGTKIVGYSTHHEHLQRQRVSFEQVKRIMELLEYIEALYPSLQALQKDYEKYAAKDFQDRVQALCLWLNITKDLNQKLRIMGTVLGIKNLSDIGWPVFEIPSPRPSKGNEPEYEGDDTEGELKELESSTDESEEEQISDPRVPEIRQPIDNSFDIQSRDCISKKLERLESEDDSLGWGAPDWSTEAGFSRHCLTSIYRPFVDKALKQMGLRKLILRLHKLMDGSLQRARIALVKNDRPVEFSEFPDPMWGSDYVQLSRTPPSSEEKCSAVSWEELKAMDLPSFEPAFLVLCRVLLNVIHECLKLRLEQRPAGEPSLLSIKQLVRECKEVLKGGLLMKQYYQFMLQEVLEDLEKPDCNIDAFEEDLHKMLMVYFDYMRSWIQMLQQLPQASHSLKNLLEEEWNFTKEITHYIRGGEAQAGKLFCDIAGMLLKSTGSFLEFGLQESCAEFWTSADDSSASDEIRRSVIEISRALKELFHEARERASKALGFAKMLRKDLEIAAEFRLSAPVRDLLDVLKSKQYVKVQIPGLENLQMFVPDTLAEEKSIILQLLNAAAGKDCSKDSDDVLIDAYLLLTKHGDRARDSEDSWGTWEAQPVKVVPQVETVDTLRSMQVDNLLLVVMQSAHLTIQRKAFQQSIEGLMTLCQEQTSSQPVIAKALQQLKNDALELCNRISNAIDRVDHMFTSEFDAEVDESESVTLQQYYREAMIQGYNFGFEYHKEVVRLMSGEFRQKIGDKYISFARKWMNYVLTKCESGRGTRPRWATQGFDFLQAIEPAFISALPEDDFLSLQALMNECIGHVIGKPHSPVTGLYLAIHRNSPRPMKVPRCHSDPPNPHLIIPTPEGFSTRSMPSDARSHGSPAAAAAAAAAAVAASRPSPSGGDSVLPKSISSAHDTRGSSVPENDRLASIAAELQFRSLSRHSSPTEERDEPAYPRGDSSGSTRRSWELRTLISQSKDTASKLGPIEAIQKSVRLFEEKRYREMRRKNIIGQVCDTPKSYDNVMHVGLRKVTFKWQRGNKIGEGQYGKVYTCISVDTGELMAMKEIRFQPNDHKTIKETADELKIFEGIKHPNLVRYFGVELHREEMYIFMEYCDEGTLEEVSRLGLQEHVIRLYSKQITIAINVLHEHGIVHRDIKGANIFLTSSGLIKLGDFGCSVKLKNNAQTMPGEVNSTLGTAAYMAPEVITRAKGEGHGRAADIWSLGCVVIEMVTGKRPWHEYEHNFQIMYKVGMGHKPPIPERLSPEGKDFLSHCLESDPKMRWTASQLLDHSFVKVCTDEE
# [6] = molecular target: RAC-gamma serine/threonine-protein kinase (Homo sapiens, UniProt Q9Y243)
# Sequence of RAC-gamma serine/threonine-protein kinase (Q9Y243 whole entry): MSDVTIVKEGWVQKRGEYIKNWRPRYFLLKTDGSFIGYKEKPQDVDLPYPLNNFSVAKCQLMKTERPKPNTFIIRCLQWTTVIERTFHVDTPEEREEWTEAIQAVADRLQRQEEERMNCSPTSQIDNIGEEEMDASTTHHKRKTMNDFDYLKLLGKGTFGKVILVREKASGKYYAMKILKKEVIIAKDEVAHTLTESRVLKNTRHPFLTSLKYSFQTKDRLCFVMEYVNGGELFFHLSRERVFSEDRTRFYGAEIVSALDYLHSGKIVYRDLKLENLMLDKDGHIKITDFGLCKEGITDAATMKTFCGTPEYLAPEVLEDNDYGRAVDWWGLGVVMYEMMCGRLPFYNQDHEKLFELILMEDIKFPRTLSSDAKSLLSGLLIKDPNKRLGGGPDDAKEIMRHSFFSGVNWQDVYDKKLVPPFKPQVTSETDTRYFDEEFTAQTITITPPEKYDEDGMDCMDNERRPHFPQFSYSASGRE
# Also: in the data inactive means no Kd found up to 30 µM.
# Sequence of Cyclin-dependent kinase 5 (Q00535 whole entry): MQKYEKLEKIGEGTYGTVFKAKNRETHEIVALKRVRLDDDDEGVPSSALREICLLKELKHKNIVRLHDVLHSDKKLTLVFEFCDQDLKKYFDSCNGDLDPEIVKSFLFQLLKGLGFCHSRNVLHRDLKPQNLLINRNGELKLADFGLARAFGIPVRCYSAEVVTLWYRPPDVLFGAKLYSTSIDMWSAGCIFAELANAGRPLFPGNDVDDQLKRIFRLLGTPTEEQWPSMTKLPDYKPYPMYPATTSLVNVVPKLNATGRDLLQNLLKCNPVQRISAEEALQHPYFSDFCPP
Kd [1],Kd (Ephrin type-B receptor 3),Kd [2],Kd [3],Kd [5],Kd [6],SMILES,Kd [4]
> 30 µM (inactive),> 30 µM (inactive),> 30 µM (inactive),> 30 µM (inactive),> 30 µM (inactive),> 30 µM (inactive),COc1ccc(-c2ccc3c(N4CCOC[C@@H]4C)nc(N4CCOC[C@@H]4C)nc3n2)cc1CO [AZD-8055],> 30 µM (inactive)
> 30 µM (inactive),> 30 µM (inactive),> 30 µM (inactive),> 30 µM (inactive),> 30 µM (inactive),> 30 µM (inactive),O=C(O)[C@]1(Cc2cccc(Nc3nccs3)n2)CC[C@@H](Oc2cccc(Cl)c2F)CC1 [MK-5108],> 30 µM (inactive)
> 30 µM (inactive),> 30 µM (inactive),> 30 µM (inactive),> 30 µM (inactive),> 30 µM (inactive),> 30 µM (inactive),COc1cc(CCc2cc(NC(=O)c3ccc(N4C[C@@H](C)N[C@@H](C)C4)cc3)n[nH]2)cc(OC)c1 [AZD-4547],> 30 µM (inactive)

# Continued, compound first:
SMILES,Kd [1],Kd (Ephrin type-B receptor 3),Kd [2],Kd [3],Kd [5],Kd [6],Kd [4]
Cc1ccc(NC(=O)c2ccc(CN3CC[C@H](N(C)C)C3)c(C(F)(F)F)c2)cc1Nc1nccc(-c2cncnc2)n1 [BAFETINIB],> 30 µM (inactive),4.55 µM (active),> 30 µM (inactive),> 30 µM (inactive),> 30 µM (inactive),> 30 µM (inactive),> 30 µM (inactive)
Cc1ccc(-n2nc(C(C)(C)C)cc2NC(=O)NCc2cc(F)ccc2Oc2ccc3c(cnn3CCO)c2)cc1 [PEXMETINIB],4.16 µM (active),28.2 µM,> 30 µM (inactive),> 30 µM (inactive),> 30 µM (inactive),> 30 µM (inactive),> 30 µM (inactive)
CNC(=O)c1ccc(-c2cnc3ncc(Cc4ccc5ncccc5c4)n3n2)cc1F [CAPMATINIB],> 30 µM (inactive),> 30 µM (inactive),> 30 µM (inactive),> 30 µM (inactive),> 30 µM (inactive),> 30 µM (inactive),> 30 µM (inactive)
